{"source": "patent US7674783B2", "about": "“Estrogen beta receptor agonists to prevent or reduce the severity of cardiovascular disease” (Dimera Inc., priority 2002, dated 2010)", "key": {"[1]": {"tested_on": "rhesus coronary VMC", "experiment": "Ca2+ responses to S+U in rhesus coronary VMC after in vitro treatment (Fluo3 imaging)", "assay_type": "cell-based, rhesus monkey", "conditions": "for Ca2+ response to S+U (protected state vs control): FIG. 6, p<0.05; for Ca2+ signal in response to 15 sec S+U (protection): FIG. 4", "description": "(§1) Hearts or major blood vessels are removed at necropsy from rhesus monkeys sacrificed for other purposes and are immediately immersed in cold ionic solution for mammals (ISM2). ISM2 contains, in mM, 100 NaCl, 16 NaHCO3, 0.5 NaH2PO4, 4.7 KCl, 1.8 CaCl2, 0.4 MgCl2, 0.4 HgSO4, 50 HEPES, and 5.5 dextrose, at pH 7-3 to 7.4. Single cells are enzymatically dissociated in a multi-step process for hearts and coronary arteries are dissected from the anterior and posterior walls of the ventricles and the atrioventricular sulcus. The coronary artery segments are cleaned and then cut into small pieces and rinsed in culture solution for mammals—5th generation (CV5M) for 10 min, followed by potassium glutamate (KG) solution for 10 min, both at room temperature. CV5M contains 4.0 mM L-glutamine, 100 μg/mL ciprofloxacin, 50 mM HEPES (pH 7.3), and 16 mM NaHCO3 dissolved in 90% MEM-Earles's salts and 10% horse serum. KG solution contains, in mM, 140 K-glutamate, 50 HEPES (pH 7.3), 16 NaH2PO4, and 16.5 dextrose.\nThe coronary artery tissue is then incubated at 37° C. for 60 min in an enzyme solution (430 U/ml collagenase and 2 U/ml elastase with 2 mg/ml bovine serum albumin and 100 μM Ca^2+ in 10 ml of 37° C. KG) with slow stirring. The supernatant is transferred to 25 ml of 4° C. KG holding solution with 10% horse serum (KG-H), and 10 ml of enzyme solution is added to the remaining un-dispersed tissue fragments. This enzymatic treatment is repeated three times.\nEnzyme exposure is minimized by cold and added serum. Holding solutions (with 10% serum) containing the dispersed cells are centrifuged at 200 G and 4° C. for 5 min. After the supernatant is removed, the cells are re-suspended in 5 ml of 37° C. CV5M and incubated for 1 hr at 37° C. to permit preferential attachment of fibroblasts. The remaining cells in suspension are counted and concentrated to ˜100,000 living cells/ml by centrifugation, and re-suspended in CV5M at 37° C. VMC are then seeded on clean glass coverslips in culture plates, and maintained undisturbed in 95% air-5% CO2 and 95% humidity at 37° C. for attachment for 12 hr, and then flooded with CV5M. Cells from the suspension are also similarly seeded in growth optimized culture flasks and flooded with CV5M after 12 hr.\nMedia changes to a 1% medium (CV5MM, identical to CV5M except the concentration of horse serum is 1 %) are used to reduce growth factors after 2-4 days. Strict pH control (7.3-7.4) at each temperature (4° and 37° C.) is maintained by recognition and allowance for the temperature coefficient of the HEPES buffer. Subculture of cells is performed by brief trypsinization, followed by neutralization of trypsin, wash in media, reconstitution of cell suspension in medium with 1% serum, and plating onto culture plates and coverslips. For Ca^2+ imaging experiments, VMC from primary culture are used.\nImaging of intracellular Ca^2+ changes is performed using the fluorescent indicator, Fluo3. Glass coverslips with attached VMC are placed into 300 μL LF 922 laminar flow chambers on the stage of a Zeiss Axiovert 200M microscope, and suffused with ISM2 continuously at 1 mL/min. Live cell fluorescent data acquisition is performed with a photon counting Hamamatsu VIM camera in conjunction with image processing software. Briefly, VMC are loaded with 3 μM Fluo3 for 10 min (stopped flow), then washed (continuously suffused) with ISM2 for 5 min. VMC are exposed for stimulation to a combination of serotonin and U46619, a stabile thromboxane A2 mimetic. This combination, containing serotonin at a concentration of 10 μM and U46619 at a concentration of 100 nM, is referred to as S+U. The VMC are exposed to the S+U combination for 15 sec (stopped flow), and then continuously suffused with ISM2."}, "[2]": {"molecular_target": "T1, estrogen receptor beta (ERβ/D22 interaction) (Homo sapiens, UniProt Q92731)", "T1 construct": "purchased PanVera/Invitrogen (Invitrogen Corp., Carlsbad, Calif.)", "T1 sequence (Q92731 whole entry)": "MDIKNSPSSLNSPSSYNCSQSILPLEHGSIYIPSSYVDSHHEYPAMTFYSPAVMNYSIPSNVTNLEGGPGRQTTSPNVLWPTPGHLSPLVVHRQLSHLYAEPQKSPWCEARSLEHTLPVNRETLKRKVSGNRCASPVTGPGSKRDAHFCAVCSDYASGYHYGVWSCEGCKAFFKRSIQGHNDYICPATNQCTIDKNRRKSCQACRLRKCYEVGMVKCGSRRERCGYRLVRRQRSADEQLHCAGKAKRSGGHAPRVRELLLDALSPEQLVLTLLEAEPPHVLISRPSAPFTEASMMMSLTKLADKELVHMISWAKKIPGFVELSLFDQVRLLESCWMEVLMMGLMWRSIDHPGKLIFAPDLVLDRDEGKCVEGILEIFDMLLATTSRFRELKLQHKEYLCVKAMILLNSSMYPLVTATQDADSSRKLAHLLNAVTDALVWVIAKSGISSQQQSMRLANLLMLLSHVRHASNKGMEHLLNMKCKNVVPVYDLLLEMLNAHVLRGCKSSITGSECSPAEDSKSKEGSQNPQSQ", "experiment": "ERβ coactivator fluorescence polarization assay", "assay_type": "biochemical", "conditions": "0.038 nM to 1240 nM, triplicate, FIG. 3", "procedure": "An estrogen receptor beta coactivator fluorescence polarization assay was performed by PanVera/Invitrogen discovery screening applying the company's ERβ Coactivator Assay Kit (Invitrogen Corp., Carlsbad, Calif.) using fluorescence polarization with known estrogen receptor ligands (estradiol, ICI182,780, tamoxifen, and OH-tamoxifen) and test compounds (estriol, 3βAdiol, and epiestriol).\nData on the X-axis of the graph of FIG. 3 are represented as log of concentrations from 0.038 nM to 1240 nM tested for each of the perspective ligands. The ligand concentration that produces a half-maximal increase or decrease in polarization equals the ligand EC50 for the ERβ/D22 interaction. The ordinate Y-axis, mP, indicates fluorescence polarization units. Increase in polarization indicates agonist activity. Conversely, a decrease in polarization indicates antagonist activity. The date represent mean +/− standard deviation of the polarization values from the assay performed in triplicate."}, "[3]": {"tested_on": "VMC isolated from OVX monkeys", "experiment": "Ca2+ response to S+U of cultured VMC isolated from estriol-treated OVX monkeys (Fluo3 imaging)", "assay_type": "cell-based, rhesus monkey", "conditions": "VMC from OVX monkeys treated 4 weeks with daily transdermal estriol, cultured 2 weeks", "description": "as §1, with “dextrose. […]” for “dextrose.”\nEnzyme exposure is minimized by cold and added serum. […] The remaining cells in suspension are counted and concentrated to ˜100,000 living cells/ml by centrifugation, and re-suspended in CV5M at 37° C. […]"}, "[4]": {"experiment": "Estriol absorbed, urine level after topical estriol cream", "assay_type": "in vivo, Macaca mulatta", "conditions": "OVX rhesus monkeys, daily 0.3% estriol topical cream, urine collected just prior to catheterization, n = 5", "quoted_text": "Repeat slow intracoronary infusions of 1 ml over 30 seconds of the combination of serotonin and U46619 in this 100:1 molar ratio were used, adjusted for body weight (0.2 mg/kg) to produce coronary blood levels of 6.7 μM serotonin and 67 nM U46619. The levels of these two components were based on calculated coronary flow dilution."}, "[5]": {"tested_on": "coronary arteries of ovariectomized rhesus monkeys", "experiment": "Drug-induced (serotonin + U46619) coronary vasospasm in ovariectomized rhesus monkeys, coronary angiography", "assay_type": "in vivo, Macaca mulatta", "procedure": "Six adult ovariectomized (OVX) female rhesus monkeys (Macaca mulatta) were employed in the studies described below. None of the monkeys had been exposed to high cholesterol diets and all were later verified to lack evidence of cardiovascular disease. […] The monkeys were entered into the study no less than 3 months after ovariectomy.\nAngiography after overnight fasting began with preanesthesia with ketamine (10 mg/kg body weight intramuscular), intubation with an endotracheal tube and a light surgical plane of anesthesia with isoflurane (induced at 1.5% to 3% maintained at 0.75% to 1.25%), vaporized with 33% nitrous oxide and 67% oxygen, or with 100% oxygen. Bilateral femoral intraarterial 3F catheters allowed for coronary catheterization and continuous recording of systemic arterial blood pressure and heart rate, which were maintained close to the initial anesthetic value for each monkey. […] A heating pad assisted in maintenance of a body temperature decrease ≦2° C. of preanesthesia body temperature (monitored by rectal thermometer). An electrocardiogram (ECG) recorded on a Gould eight-channel recorder, cutaneous arterial oxygen saturation, respiratory rate and end-tidal CO2 were also monitored.\nEntire experiments were recorded on videotape (with episodic fluoroscopic imaging and continuous voice annotation) to permit computerized quantitative coronary angiography. […]\nPlacement of the 3F catheter was adjusted to provide sufficient filling with radio-opaque contrast medium, limited reflux and isolation of a branch of the coronary arterial tree. […] Fluoroscopic images were recorded on film using an OEC model 9800 digital x-ray system with fluoroscopic C-arm, digitally recorded, and evaluated in subsequent analysis. All procedures including a brief 0.2 ml injection of Hexabrix for optimal quantitative angiography were recorded on videotape for subsequent computer analysis. […]\nAfter 4 weeks of daily treatment with 0.2 mg/kg of the estriol topical cream, the monkeys were studied by coronary catheterization, and reactivity was assessed by injection of serotonin (100 μM) and U46619 (1 μM). […]"}}, "note": "“Also recorded” adds a separate entry of the source.", "data": [{"molecule": "C[C@]12CC[C@H](O)C[C@@H]1CC[C@@H]1[C@@H]2CC[C@]2(C)[C@@H](O)CC[C@@H]12", "note": "[3βAdiol, 5α-androstan-3β,17β-diol]", "values": [{"measurement": "Protection relative to genistein and DPN", "setting": "[1]; 300 pM 3βAdiol vs 10 nM genistein and 1 nM DPN, FIG. 6", "value": "superior"}, {"measurement": "Ca2+ response to S+U (protected state vs control)", "setting": "[1]; 300 pM", "value": "produced a protected state"}, {"measurement": "Ca2+ signal in response to 15 sec S+U (protection)", "setting": "[1]; 72 hours treatment at 300 pM", "value": "protection with estriol was found to be weaker than the estrogen beta receptor selective agonists 3βAdiol and epiestriol"}, {"measurement": "Ca2+ response to S+U", "setting": "[1]; concentrations greater than 30 pM (range tested 30 pM to 3 nM), FIG. 5", "value": "a protected state was established"}, {"measurement": "Estrogen beta receptor agonist activity (increase in polarization)", "setting": "[2]", "value": "beta receptor activity similar to that of estriol and estradiol"}]}, {"molecule": "N#CC(Cc1ccc(O)cc1)c1ccc(O)cc1", "note": "(stereo not drawn) [DPN, diarylpropionitrile]", "values": [{"measurement": "Ca2+ response to S+U (protected state vs control)", "setting": "[1]; 1 nM", "value": "produced a protected state"}]}, {"molecule": "CC[C@@H]1Cc2cc(O)ccc2C2=C1c1ccc(O)cc1C[C@H]2CC", "note": "[RRTHC, RR-tetrahydrochrysene]", "values": [{"measurement": "Ca2+ signal in response to 15 sec S+U (exaggerated hyperreactive state)", "setting": "[1]; 1 to 6 hour treatment with RRTHC, FIG. 7B", "value": "not"}, {"measurement": "Ca2+ signal in response to 15 sec S+U", "setting": "[1]; 72 hours in RRTHC in vitro, FIG. 7B, p<0.05", "value": "exaggerated hyperreactive state beyond control"}, {"measurement": "Effect on protection by 72 hour 300 pM 3βAdiol (Ca2+ signal after S+U)", "setting": "[1]; RRTHC 30 μM, 3 hours prior to and during 3βAdiol, FIG. 7A, p<0.05", "value": "blocked"}]}, {"molecule": "C[C@]12CC[C@@H]3c4ccc(O)cc4CC[C@H]3[C@@H]1C[C@H](O)[C@@H]2O", "note": "[epiestriol]", "values": [{"measurement": "Ca2+ signal in response to 15 sec S+U (protection)", "setting": "[1]; 72 hours treatment at 1 nM", "value": "protection with estriol was found to be weaker than the estrogen beta receptor selective agonists 3βAdiol and epiestriol"}, {"measurement": "Estrogen beta receptor agonist activity (increase in polarization)", "setting": "[2]", "value": "beta receptor activity similar to that of estriol and estradiol"}]}, {"molecule": "C[C@]12CC[C@@H]3c4ccc(O)cc4CC[C@H]3[C@@H]1C[C@@H](O)[C@@H]2O", "note": "[estriol]", "values": [{"measurement": "Ca2+ response state after S+U challenge", "setting": "[3]; 15 sec S+U stimulus, FIG. 2", "value": "protected state"}, {"measurement": "Duration of Ca2+ spike after S+U challenge", "setting": "[3]; declining after 2 min to nearly baseline", "value": "10 to 30", "unit": "s"}, {"measurement": "Ca2+ signal in response to 15 sec S+U (protection)", "setting": "[1]; 72 hours treatment at 1 nM", "value": "protective"}, {"measurement": "Protection relative to the other agonists", "setting": "[1]; 72 hours, 1 nM estriol vs 300 pM 3βAdiol and 1 nM epiestriol, FIG. 4, p<0.05", "value": "weaker"}, {"measurement": "E3 absorbed, urine (total)", "setting": "[4]", "value": "***2412 +/− 316 (n = 5) ng/ml"}, {"measurement": "Vasospasm criteria met (incidence)", "setting": "[5]; OVX rhesus monkeys, 4 weeks daily 0.3% estriol topical cream, intracoronary serotonin + U46619, criteria <33% of control diameter for >5 minutes", "value": "0/6"}, {"measurement": "Protection against coronary vasospasm", "setting": "[5]; OVX rhesus monkeys, 4 weeks daily estriol topical cream, serotonin + U46619 challenge", "value": "protected against vasospasm; also recorded: protection against coronary vasospasm by administration of estriol was categorical"}, {"measurement": "Minimum diameter of coronary arteries following S+U provocative stimulus", "setting": "[5]; estriol cream treated OVX monkeys vs untreated OVX, FIG. 1, p<0.05", "value": "indicative of protection against provoked vasospasm"}, {"measurement": "Estrogen beta receptor agonist activity (increase in polarization)", "setting": "[2]", "value": "estrogen beta agonists"}]}, {"molecule": "O=c1c(-c2ccc(O)cc2)coc2cc(O)cc(O)c12", "note": "[genistein]", "values": [{"measurement": "Ca2+ response to S+U (protected state vs control)", "setting": "[1]; 10 nM", "value": "produced a protected state"}]}]}
